From PubChem BioAssay (NCI)
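Growth conditions: 96-well plates. Treatment: test compound, 48 hours, 5 concentrations. Analysis: linear interpolation between bracketing concentrations; unreached endpoints set to highest concentration. TGI denotes the concentration required for complete inhibition of growth.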

Tests used:
Assay in all cases: growth of human tumour cells (NCI), 48 h
[1] = tested on: SF-295 CNS
[2] = tested on: CCRF-CEM leukemia
[3] = tested on: ACHN renal
[4] = tested on: DMS 114 small cell lung
[5] = tested on: NCI-H522 lung
[6] = tested on: UO-31 renal
[7] = tested on: NCI-H23 lung
[8] = tested on: IGROV1 ovarian
[9] = tested on: MALME-3M melanoma
[10] = tested on: OVCAR-4 ovarian
[11] = tested on: A549 NSCLC
[12] = tested on: A498 renal
[13] = tested on: SF-268 CNS
[14] = tested on: DMS 273 small cell lung
[15] = tested on: OVCAR-3 ovarian
[16] = tested on: RXF-631 renal
[17] = tested on: M19-MEL melanoma
[18] = tested on: LXFL 529 NSCLC
[19] = tested on: TK-10 renal
[20] = tested on: KM12 colon
[21] = tested on: HCC-2998 colon
[22] = tested on: 786-0 renal
[23] = tested on: SK-MEL-28 melanoma
[24] = tested on: COLO 205 colon
[25] = tested on: U251 CNS
[26] = tested on: HOP-62 NSCLC
[27] = tested on: SNB-78 CNS
[28] = tested on: EKVX NSCLC
[29] = tested on: UACC-62 melanoma
[30] = tested on: SNB-75 CNS
[31] = tested on: NCI-H226 lung
[32] = tested on: RPMI-8226 leukemia
[33] = tested on: M14 melanoma
[34] = tested on: HCT-15 colon
[35] = tested on: HOP-92 NSCLC
[36] = tested on: HT29 colon
[37] = tested on: SN12C renal
[38] = tested on: SW-620 colon
[39] = tested on: OVCAR-5 ovarian
[40] = tested on: SK-MEL-5 melanoma
[41] = tested on: SNB-19 CNS
[42] = tested on: CAKI-1 renal
[43] = tested on: SF-539 CNS
[44] = tested on: SK-OV-3 ovarian
[45] = tested on: HL-60(TB) leukemia
[46] = tested on: DLD-1 colon
[47] = tested on: NCI-H460 lung
[48] = tested on: HCT-116 colon
[49] = tested on: OVCAR-8 ovarian
[50] = tested on: HOP-18 NSCLC
[51] = tested on: KM20L2 colon
[52] = tested on: UACC-257 melanoma
[53] = tested on: K-562 leukemia
[54] = tested on: SK-MEL-2 melanoma
[55] = tested on: SR leukemia
[56] = tested on: RXF 393 renal
[57] = tested on: LOX IMVI melanoma
[58] = tested on: MOLT-4 leukemia

Structure (SMILES): COC(=O)C(C)Oc1ccc(O)cc1 (centres undefined)
- TGI [1]: > 100 µM
- TGI [2]: > 100 µM
- TGI [3]: > 100 µM
- TGI [4]: 34.7 µM
- TGI [5]: > 100 µM
- TGI [6]: > 100 µM
- TGI [7]: > 100 µM
- TGI [8]: > 100 µM
- TGI [9]: > 100 µM
- TGI [10]: > 100 µM
- TGI [11]: > 100 µM
- TGI [12]: > 100 µM
- TGI [13]: 44.5 µM
- TGI [14]: > 100 µM
- TGI [15]: > 100 µM
- TGI [16]: > 100 µM
- TGI [17]: > 100 µM
- TGI [18]: > 100 µM
- TGI [19]: > 100 µM
- TGI [20]: > 100 µM
- TGI [21]: > 100 µM
- TGI [22]: > 100 µM
- TGI [23]: 62 µM
- TGI [24]: > 100 µM
- TGI [25]: > 100 µM
- TGI [26]: > 100 µM
- TGI [27]: > 100 µM
- TGI [28]: > 100 µM
- TGI [29]: > 100 µM
- TGI [30]: > 100 µM
- TGI [31]: > 100 µM
- TGI [32]: > 100 µM
- TGI [33]: > 100 µM
- TGI [34]: > 100 µM
- TGI [35]: > 100 µM
- TGI [36]: > 100 µM
- TGI [37]: > 100 µM
- TGI [38]: > 100 µM
- TGI [39]: > 100 µM
- TGI [40]: > 100 µM
- TGI [41]: > 100 µM
- TGI [42]: > 100 µM
- TGI [43]: > 100 µM
- TGI [44]: > 100 µM
- TGI [45]: > 100 µM
- TGI [46]: > 100 µM
- TGI [47]: > 100 µM
- TGI [48]: 40.3 µM
- TGI [49]: > 100 µM
- TGI [50]: > 100 µM
- TGI [51]: > 100 µM
- TGI [52]: > 100 µM
- TGI [53]: > 100 µM

Structure (SMILES): COC(=O)C(/C(=N\O)C(=O)Nc1ccc(Br)cc1)c1nc2ccccc2[nH]c1=O (centres undefined)
- TGI [1]: > 100 µM
- TGI [2]: 72.9 µM
- TGI [54]: 49.2 µM
- TGI [3]: > 100 µM
- TGI [4]: 41.2 µM
- TGI [5]: 32.5 µM
- TGI [6]: > 100 µM
- TGI [55]: 40.5 µM
- TGI [7]: > 100 µM
- TGI [8]: 71.4 µM
- TGI [9]: > 100 µM
- TGI [56]: 89.2 µM
- TGI [10]: > 100 µM
- TGI [11]: > 100 µM
- TGI [12]: > 100 µM
- TGI [13]: > 100 µM
- TGI [14]: > 100 µM
- TGI [15]: 50 µM
- TGI [16]: > 100 µM
- TGI [17]: 68.2 µM
- TGI [18]: 80.5 µM
- TGI [20]: > 100 µM
- TGI [21]: > 100 µM
- TGI [22]: 90.8 µM
- TGI [23]: > 100 µM
- TGI [24]: 37.5 µM
- TGI [57]: 41.6 µM
- TGI [25]: > 100 µM
- TGI [26]: 92.6 µM
- TGI [27]: > 100 µM
- TGI [28]: > 100 µM
- TGI [29]: 73.1 µM
- TGI [30]: > 100 µM
- TGI [31]: 71.9 µM
- TGI [32]: 61.6 µM
- TGI [33]: > 100 µM
- TGI [34]: > 100 µM
- TGI [35]: 97.6 µM
- TGI [58]: 57.5 µM
- TGI [36]: > 100 µM
- TGI [37]: > 100 µM
- TGI [39]: > 100 µM
- TGI [40]: 68.2 µM
- TGI [41]: > 100 µM
- TGI [42]: > 100 µM
- TGI [43]: 58.4 µM
- TGI [44]: > 100 µM
- TGI [45]: 55.3 µM
- TGI [46]: > 100 µM
- TGI [47]: > 100 µM
- TGI [48]: > 100 µM
- TGI [49]: > 100 µM
- TGI [50]: > 100 µM
- TGI [51]: > 100 µM
- TGI [52]: > 100 µM
- TGI [53]: 67 µM
